Values quoted from earlier work in patent US8119691B2, “Method for treating airway hyper-responsiveness with lipoxin analogs” (National Institutes of Health (NIH), priority 2001, dated 2012).

Assays:
[1] = system: human asthmatics; details: native LXA4 given to human asthmatics (ref. 22); cited from earlier work
[2] = system: eosinophil; details: cited from earlier work
[3] = biological target: T1, recombinant cysLT1 receptors (Homo sapiens, UniProt Q9Y271); details: CHO cells, in vitro (ref. 12); cited from earlier work
T1 construct: host or cells: Chinese hamster ovary cells (recombinant expression)
T1 sequence (Q9Y271 1-337): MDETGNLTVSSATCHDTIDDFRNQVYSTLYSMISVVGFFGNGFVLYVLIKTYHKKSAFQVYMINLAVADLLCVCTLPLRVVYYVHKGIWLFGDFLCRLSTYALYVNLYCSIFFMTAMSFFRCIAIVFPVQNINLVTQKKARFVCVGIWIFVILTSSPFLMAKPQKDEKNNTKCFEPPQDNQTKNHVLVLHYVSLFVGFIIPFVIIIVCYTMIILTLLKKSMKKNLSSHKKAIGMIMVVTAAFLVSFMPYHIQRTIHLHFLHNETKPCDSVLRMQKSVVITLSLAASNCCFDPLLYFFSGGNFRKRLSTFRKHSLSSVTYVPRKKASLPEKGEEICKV

[4] = system: airway smooth muscle; details: in vitro (ref. 23); cited from earlier work

For `CCCCC[C@H](O)/C=C/C=C\C=C\C=C\[C@@H](O)[C@@H](O)CCCC(=O)O` [LXA4, Lipoxin A4], the LTC4-stimulated airway hyper-responsiveness [1] is given as “inhibits LTC4-stimulated airway hyper-responsiveness”, the eosinophil chemotaxis [2] is given as “directly inhibits eosinophil chemotaxis” and the “competition for binding at LTD4 recognition sites and recombinant cysLT1 receptors” value [3] is given as “compete for binding with high affinity at LTD4 recognition sites”. For the same molecule, the “LTD4-initiated constriction of airway smooth muscle” value [4] was “blocks LTD4-initiated constriction of airway smooth muscle in vitro”.
